Assay results from US12673026B2, “Liposomal compositions and methods of use thereof for improved stability, bioavailability and sustained release” (SpecNova LLC, priority 2023, dated 2026).
Blank lines part the entries; values can stand above or below the compound they belong to.

Tests used:
[1] = L-carnosine stability in simulated gastric and intestinal fluids; format: physicochemical; settings: for % Remaining: 10 μM, 37.0° C.
Protocol: Three fluids were simulated: fasted (pH 1.2) and fed (pH 3.5) simulated gastric fluid (SGF) and simulated intestinal fluid (SIF) (pH 6.8). […] A zero time point was taken after adding the appropriate stock to each fluid (N=2) and mixed by pipette. Time points were then taken at 5, 10, 15, 30, 60, 90, and 120 minutes. These were quenched with ACN and kept on ice. The samples were then added to 50% ACN in […] ammonium acetate buffer (pH=3.6) with Verapamil for Internal Standard (IS) and filtered before analysis.
Two concentrations of working stocks were made at 5000 ng/ml and 200 ng/ml. In Table 12, diluent is 50% ACN in […] ammonium acetate buffer (pH=3.6). The total analytical volume was 200 μL for all standards and samples. Six sets of QCs were used along with the samples and seven calibration standards. All were analyzed by UPLC-MS/MS on the same day as preparation.

[2] = Carnosine permeability across Caco-2 cells; format: in vitro ADME, Human; settings: human; Caco-2 passage 26; 20 μM in HBSS; apical to basolateral
Protocol: (§1) The study was performed using Caco-2 cells at a passage number of 26 seeded on a 24-well transwell plates. The permeability of carnosine was studied at a concentration of 20 μM. Compounds were solubilized in HBSS and added to apical compartment of transwells and blank buffer on basolateral side.

Caco-2 cells [3] = test: Carnosine permeability across Caco-2 cells; format: in vitro ADME, Human; settings: Caco-2 passage 26, A-->B
Protocol: as §1

[4] = CoQ10 Caco-2 permeability; format: in vitro ADME, Human; settings: human; Caco-2 passage 38; formulation: supernatant of 1 mg/mL in HBSS; pure compound 10 μM; apical to basolateral
Protocol: (§2) The study was performed using Caco-2 cells at a passage number of 38 seeded on a 24-well transwell plate. […] Instead, the formulation was added to the HBSS buffer at a concentration of 1 mg/mL, vortexed, and centrifuged for 15 min at 10,000 G-force. The supernatant was used for permeability assessment. For pure compound, the permeability study was performed at 10 μM final concentration. Compound solutions were added to the apical compartments of the transwell and blank buffer on the basolateral side. FIG. 9 provides a visual summary of this process.

Caco-2 cells [5] = test: CoQ10 Caco-2 permeability; format: in vitro ADME, Human; settings: Caco-2 passage 38, A --> B
Protocol: as §2

[6] = Berberine chloride Caco-2 permeability; format: in vitro ADME, Human; settings: human; Caco-2 passage 38; formulation: supernatant of 1 mg/mL in HBSS; pure compound 10 μM; apical to basolateral
Protocol: as §2

Caco-2 cells [7] = test: Berberine chloride Caco-2 permeability; format: in vitro ADME, Human; settings: Caco-2 passage 38, A --> B
Protocol: as §2

[8] = Quercetin Caco-2 permeability; format: in vitro ADME, Human; settings: human; Caco-2 passage 28; 20 μM in HBSS; apical to basolateral
Protocol: (§3) The study was performed using Caco-2 cells at a passage number of 28 seeded on a 96-well Transwell plates. Permeability was studied at a concentration of 20 μM. Compounds were solubilized in HBSS and added to apical compartment of the Transwell plate and blank buffer on basolateral side. FIG. 17 provides a visual summary of this process.

Caco-2 cells [9] = test: Quercetin Caco-2 permeability; format: in vitro ADME, Human; settings: Caco-2 passage 28, A-->B
Protocol: as §3

[10] = Randomized, double-blind, placebo-controlled crossover trial: plasma and leukocyte vitamin C concentration after single dose; format: in vivo, human; settings: single 500 mg dose; p<0.001
Protocol: Venous blood samples were collected 0, 0.5-, 1-, 1.5-, 2-, 3-, 4-, 6-, 8-, 12-, and 24-hours after ingestion and were analyzed for plasma and leukocyte vitamin C concentration.

- % Remaining ([1]; Fasted SGF (pH 1.2), 0 minutes): 100%
- % Remaining ([1]; Fasted SGF (pH 1.2), 5 minutes): 100.3%
- % Remaining ([1]; Fasted SGF (pH 1.2), 10 minutes): 95.5%
- % Remaining ([1]; Fasted SGF (pH 1.2), 15 minutes): 97.5%
- % Remaining ([1]; Fasted SGF (pH 1.2), 30 minutes): 94%
- % Remaining ([1]; Fasted SGF (pH 1.2), 60 minutes): 99.4%
- % Remaining ([1]; Fasted SGF (pH 1.2), 90 minutes): 101.5%
- % Remaining ([1]; Fasted SGF (pH 1.2), 120 minutes): 96.5%
- % Remaining ([1]; Fed SGF (pH 3.5), 0 minutes): 100%
- % Remaining ([1]; Fed SGF (pH 3.5), 5 minutes): 103.9%
- % Remaining ([1]; Fed SGF (pH 3.5), 10 minutes): 97.6%
- % Remaining ([1]; Fed SGF (pH 3.5), 15 minutes): 91.9%
- % Remaining ([1]; Fed SGF (pH 3.5), 30 minutes): 96.5%
- % Remaining ([1]; Fed SGF (pH 3.5), 60 minutes): 102.2%
- % Remaining ([1]; Fed SGF (pH 3.5), 90 minutes): 97.4%
- % Remaining ([1]; Fed SGF (pH 3.5), 120 minutes): 97.4%
- % Remaining ([1]; SIF (pH 6.8), 0 minutes): 100%
- % Remaining ([1]; SIF (pH 6.8), 5 minutes): 96.9%
- % Remaining ([1]; SIF (pH 6.8), 10 minutes): 91%
- % Remaining ([1]; SIF (pH 6.8), 15 minutes): 89%
- % Remaining ([1]; SIF (pH 6.8), 30 minutes): 95.8%
- % Remaining ([1]; SIF (pH 6.8), 60 minutes): 103%
- % Remaining ([1]; SIF (pH 6.8), 90 minutes): 100.1%
- % Remaining ([1]; SIF (pH 6.8), 120 minutes): 99.1%
- stability in SGF and SIF ([1]; over 120 minutes): stable
- Papp A→B at 20 μM [2]: 3.05 ± 0.62 ×10⁻⁶ cm/s
- Permeability Class (High/Low) (Caco-2 cells [3]): Low
SMILES: NCCC(=O)N[C@@H](Cc1cnc[nH]1)C(=O)O [Carnosine, L-carnosine]

- Papp A→B at 10 μM [4]: 0.2 ± 0.13 ×10⁻⁶ cm/s
- Permeability Class (High/Low) (Caco-2 cells [5]): Low
SMILES: COC1=C(OC)C(=O)C(C/C=C(\C)CC/C=C(\C)CC/C=C(\C)CC/C=C(\C)CC/C=C(\C)CC/C=C(\C)CC/C=C(\C)CC/C=C(\C)CC/C=C(\C)CCC=C(C)C)=C(C)C1=O [CoQ10 Reference Standard, CoQ10]

- Papp A→B at 10 μM [6]: 2.17 ± 0.17 ×10⁻⁶ cm/s
- Permeability Class (High/Low) (Caco-2 cells [7]): Low
SMILES: COc1ccc2cc3[n+](cc2c1OC)CCc1cc2c(cc1-3)OCO2 [Sigma Aldrich Berberine Chloride, Berberine Chloride]

- Papp A→B at 20 μM [8]: 8.83 ± 0.17 ×10⁻⁶ cm/s
- Permeability Class (High/Low) (Caco-2 cells [9]): High
SMILES: O=c1c(O)c(-c2ccc(O)c(O)c2)oc2cc(O)cc(O)c12 [USP Quercetin, quercetin]

- Cmax and AUC0-24 in plasma and in leukocytes compared to placebo [10]: significantly greater
SMILES: O=C1O[C@H]([C@@H](O)CO)C(O)=C1O [VIT C, L-Ascorbic acid]
